Test results taken from patent US11091428B2 (HAPLOGEN GMBH, priority 2016, dated 2021).
Read-outs that look alike come from different tables or passages of the source.

Key:
[1] = tested on: picornaviruses (CVB1, HRV-A2, HRV-A23, EV-68); test: Anti-picornavirus cytopathic effect (CPE) reduction assay on HeLa H1 cells; type: cell-based; conditions: HeLa H1 cells, 48 h, category from averaging the EC50 values from four picornaviruses (CVB1, HRV-A2, HRV-A23, EV68), read-out: EC50 values of the compounds determined in the anti-picornavirus assay
Method: The antiviral activity of selected compounds was tested using a cytopathic effect (CPE) reduction assay on HeLa H1 cells (ATCC CRL-1958). Briefly, cells were seeded in 96-well dishes (2×10^4 cells/well) in DMEM medium (Life technologies) supplemented with 10% FBS and PenStrep solution (100 U/mL Penicillin and 100 μg/mL streptomycin) and incubated at 37° C., 5% CO2 ovemight. The next day, cells were pre-treated with serial dilutions of the compound in DMEM medium supplemented with 2% FBS and PenStrep for 2 h at 37° C., 5% CO2. Next, cells were infected with virus (CVB1, HRV-A2, HRV-A23, EV-68) at an multiplicity of infection (MOI) which results in a complete virus-induced CPE within 2 days in control wells (infected and vehicle-treated). After 48 h, supematants were aspirated and 50 μl/well of CellTiterBlue reagent (Promega) diluted 1:5 in DMEM+2% FBS, was added to the cells. Plates were returned to the incubator and allowed to develop for 1.5 h. After that, plates were equilibrated to RT and subsequently, fluorescence was recorded (Excitation wavelength: 560 nm; emission wavelength: 590 nm) using a SpectraMax M5 multimode plate reader. Viability of cells was calculated according to the formula: V=(RFUCpd−RFUVeh/(RFUM−RFUVeh), where RFUCpd refers to infected and compound-treated cells, RFUVeh to infected and vehicle-treated cells and RFUM to uninfected and vehicle treated cells. Half-maximal effective concentrations (EC50) were calculated by non-linear regression analysis using the drc package in R (R Development. Core Team, 2005). EC50 categories as presented in Table 2 were calculated by averaging the EC50 values from four picornaviruses (CVB1, HRV-A2, HRV-A23, EV68).

[2] = molecular target: T1, PLA2G16 (Homo sapiens, UniProt P53816); test: Enzyme activity assay for PLA2G16 (Red/Green BODIPY PC-A2 fluorescence); type: biochemical; conditions: His-tagged PLA2G16, 4 min pre-incubation, 2 nM to 50 μM; read-out: IC50 values of the compounds determined in the enzyme activity assay for PLA2G16
T1 construct: Hexa-His (N); made in house; host or cells: E. coli BL21(DE3)
T1 sequence (P53816 1-162): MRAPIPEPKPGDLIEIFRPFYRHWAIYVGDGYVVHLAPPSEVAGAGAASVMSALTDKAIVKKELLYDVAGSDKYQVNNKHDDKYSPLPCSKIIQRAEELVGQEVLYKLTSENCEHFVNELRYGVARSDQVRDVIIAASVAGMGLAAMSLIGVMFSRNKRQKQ
Outline: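 N-His-tagged human PLA2G16 from E. coli, Ni-NTA purified. Pre-incubated 4 min with compound (2 nM–50 μM final) in pH 8.5 Tris/NaCl buffer with 5 mM glutathione, then BODIPY PC-A2 in DOPC/DOPG/cholesterol vesicles added. Fluorescence (ex 480/em 530 nm) increase over 10 min taken as activity; IC50 by non-linear regression.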

[3] = Enterovirus B, CVB1|EV68|HRVA2|HRVA23, HeLa H1, 48 h

Row | SMILES | EC50 [1] [nM] | IC50 [2] [nM] | EC50 ([1]; Enterovirus B, HeLa H1, 48 h) [nM] | EC50 [1, 3] [nM]
1 | CC1CC(=O)N(Cc2ccccc2)[C@@H]1C(=O)C(=O)NC1CC1 (single isomer, unassigned) [FP 339] | > 10000 | 1000 to 10000 | – | –
2 | CCC(=O)N(c1ccccc1OC)C(C)C(=O)C(=O)NCc1cccc(Cl)c1 (stereo not shown) [FP 141, N-[(3-Chlorophenyl)methyl]-3-[N-(2-methoxyphenyl)propanamido]-2-oxobutanamide] | – | < 1000 | 1000 to 10000 | –
3 | COCCC(C(=O)C(=O)NCC1CC1)N(C=O)Cc1ccccc1 (stereo not shown) [FP 70, 3-(N-Benzylformamido)-MN-(cyclopropylmethyl)-5-methoxy-2-oxopentanamide] | – | < 1000 | 1000 to 10000 | –
4 | O=C(NC1CC1)C(=O)C1CCC(=O)N1Cc1ccc(F)cc1 (stereo not shown) [FP 242, N-Cyclopropyl-2-{1-[(4-fluorophenyl)methyl]-5-oxopyrrolidin-2-yl}-2-oxoacetamide] | – | < 1000 | 1000 to 10000 | –
5 | CC(C)NC(=O)C(=O)C(C)N(C=O)CC(C)(C)C (stereo not shown) [FP 29, 3-[N-(2,2-Dimethylpropyl)formamido]-2-oxo-N-(propan-2-yl)butanamide] | – | < 1000 | 1000 to 10000 | –
6 | CC(NC(=O)c1ccccc1)C(=O)C(=O)NCC1CC1 (stereo not shown) [FP 178, N-(Cyclopropylmethyl)-2-oxo-3-(phenylformamido)butanamide] | – | < 1000 | 1000 to 10000 | –
7 | COc1ccccc1N(C=O)C(C)C(=O)C(=O)NCc1cc(F)cc(Cl)c1 (stereo not shown) [FP 94, N-[(3-Chloro-5-fluorophenyl)methyl]-3-[N-(2-methoxyphenyl)formamido]-2-oxobutanamide] | – | < 1000 | < 1000 | –
8 | CC(C)N(C=O)C(C)C(=O)C(=O)NCC1CCCCC1 (stereo not shown) [FP 48, N-(Cyclohexylmethyl)-2-oxo-3-[N-(propan-2-yl)formamido]butanamide] | – | < 1000 | 1000 to 10000 | –
9 | CC(NS(=O)(=O)c1ccc(F)cc1)C(=O)C(=O)NCC1CC1 (stereo not shown) [FP 219, N-(Cyclopropylmethyl)-3-(4-fluorobenzenesulfonamido)-2-oxobutanamide] | – | < 1000 | 1000 to 10000 | –
10 | CCC(NC(=O)c1ccncc1)C(=O)C(=O)NCC1CCCCC1 (stereo not shown) [FP 208, N-(Cyclohexylmethyl)-2-oxo-3-[(pyridin-4-yl)formamido]pentanamide] | – | < 1000 | > 10000 | –
11 | O=CN(Cc1ccccc1)[C@@H](Cc1c[nH]cn1)C(=O)C(=O)NCC1CC1 [FP 119, (3S)-3-(N-Benzylformamido)-N-(cyclopropylmethyl)-4-(1H-imidazol-4-yl)-2-oxobutanamide] | – | < 1000 | > 10000 | –
12 | CC(C)S(=O)(=O)N1CCC(NC(=O)C(=O)[C@H]2CCC(=O)N2Cc2ccccc2)CC1 [FP 323, 2-[(2R)-1-Benzyl-5-oxopyrrolidin-2-yl]-2-oxo-N-[1-(propane-2-sulfonyl)piperidin-4-yl]acetamide] | – | < 1000 | < 1000 | –
13 | CCC(C(=O)C(=O)NCC1CCCCC1)N(C=O)C1CCCCC1 (stereo not shown) [FP 60, 3-(N-Cyclohexylformamido)-N-(cyclohexylmethyl)-2-oxopentanamide] | – | < 1000 | 1000 to 10000 | –
14 | N#CC1(CNC(=O)C(=O)[C@H]2CCC(=O)N2Cc2ccccc2)CC1 [FP 290, 2-[(2R)-1-Benzyl-5-oxopyrrolidin-2-yl]-N-[(1-cyanocyclopropyl)methyl]-2-oxoacetamide] | – | < 1000 | 1000 to 10000 | –
15 | CCC1CC(=O)N(Cc2ccccc2)C1C(=O)C(=O)NC1CCOCC1 (stereo not shown) [FP 344, 2-(1-Benzyl-3-ethyl-5-oxopyrrolidin-2-yl)-N-(oxan-4-yl)-2-oxoacetamide] | – | < 1000 | < 1000 | –
16 | O=C(NCCC1CC1)C(=O)C1CCC(=O)N1Cc1ccccc1 (stereo not shown) [FP 307, 2-(1-Benzyl-5-oxopyrrolidin-2-yl)-N-(2-cyclopropylethyl)-2-oxoacetamide] | – | < 1000 | < 1000 | –

Row | SMILES | EC50 [1] [nM] | IC50 [2] [nM] | EC50 ([1]; Enterovirus B, HeLa H1, 48 h) [nM] | EC50 [1, 3] [nM]
17 | O=C(NC1CCC1)C(=O)[C@H]1CCC(=O)N1Cc1ccccc1 [FP 237, 2-[(2R)-1-Benzyl-5-oxopyrrolidin-2-yl]-N-cyclobutyl-2-oxoacetamide] | – | < 1000 | < 1000 | –
18 | Cc1csc(CN2C(=O)CCC2C(=O)C(=O)NCC2CC2)n1 (stereo not shown) | – | < 1000 | – | 1000 to 10000
19 | CC(C(=O)C(=O)NCC1CCCCC1)N(C=O)CC1CCN(C(=O)OC(C)(C)C)CC1 (stereo not shown) [FP 53, tert-Butyl 4-[(N-{1-[(cyclohexylmethyl)carbamoyl]-1-oxopropan-2-yl}formamido)-methyl]piperidine-1-carboxylate] | – | < 1000 | 1000 to 10000 | –
20 | Cc1csc(CN2C(=O)CCC2C(=O)C(=O)NCC2CCCC2)n1 (stereo not shown) | – | < 1000 | – | < 1000
21 | CC(C(=O)C(=O)NCC(F)(F)F)N(C=O)C1CCCCC1 (stereo not shown) [FP 110, 3-(N-Cyclohexylformamido)-2-oxo-N-(2,2,2-trifluoroethyl)butanamide] | – | < 1000 | 1000 to 10000 | –
22 | COc1ccccc1N(C=O)C(C(=O)C(=O)NCc1cccc(Cl)c1)C(C)C (stereo not shown) [FP 35, N-[(3-Chlorophenyl)methyl]-3-[N-(2-methoxyphenyl)formamido]-4-methyl-2-oxopentanamide] | – | < 1000 | 1000 to 10000 | –
23 | CC(C)SCCNC(=O)C(=O)C1CCC(=O)N1Cc1ccc(Cl)cc1 (stereo not shown) [FP 257, 2-{1-[(4-Chlorophenyl)methyl]-5-oxopyrrolidin-2-yl}-2-oxo-N-[2-(propan-2-ylsulfanyl)-ethyl]acetamide] | – | < 1000 | < 1000 | –
24 | CC(C(=O)C(=O)NCC1CC1)N(C=O)CC1CCCCC1 (stereo not shown) [FP 38, 3-[N-(Cyclohexylmethyl)formamido]-N-(cyclopropylmethyl)-2-oxobutanamide] | – | < 1000 | < 1000 | –
25 | COC(=O)N(CC1CCOCC1)C(C)C(=O)C(=O)NCC(C)C (stereo not shown) [FP 152, Methyl N-{1-[(2-methylpropyl)carbamoyl]-1-oxopropan-2-yl}-N-[(oxan-4-yl)methyl]carbamate] | – | 1000 to 10000 | > 10000 | –
26 | O=C(NC1CC2(COC2)C1)C(=O)[C@H]1CCC(=O)N1Cc1ccccc1 [FP 297, 2-[(2R)-1-Benzyl-5-oxopyrrolidin-2-yl]-N-{2-oxaspiro[3.3]heptan-6-yl}-2-oxoacetamide] | – | < 1000 | 1000 to 10000 | –
27 | CC(C(=O)C(=O)NCC1CC1)N(C=O)CC(C)(C)C (stereo not shown) [FP 41, N-(Cyclopropylmethyl)-3-[N-(2,2-dimethylpropyl)formamido]-2-oxobutanamide] | – | < 1000 | 1000 to 10000 | –
28 | CC(NC(=O)C1CC(F)(F)C1)C(=O)C(=O)NCC1CC1 (stereo not shown) [FP 174, N-(Cyclopropylmethyl)-3-[(3,3-difluorocyclobutyl)formamido]-2-oxobutanamide] | – | 1000 to 10000 | > 10000 | –
29 | CCCC(C(=O)C(=O)NCC1CC1)N(C=O)CC1CCOCC1 (stereo not shown) [FP 58, N-(Cyclopropylmethyl)-3-{N-[(oxan-4-yl)methyl]formamido}-2-oxohexanamide] | – | < 1000 | 1000 to 10000 | –
30 | CC(C(=O)C(=O)NCC1CC1)N(C=O)CC1CCN(C(=O)C2CCCCC2)CC1 (stereo not shown) [FP 81, 3-{N-[(1-Cyclohexanecarbonylpiperidin-4-yl)methyl]formamido}-N-(cyclopropylmethyl)-2-oxobutanamide] | – | 1000 to 10000 | > 10000 | –
31 | CC(C)(C)C(=O)N1CCC(NC(=O)C(=O)[C@H]2CCC(=O)N2Cc2ccccc2)CC1 [FP 314, 2-[(2R)-1-Benzyl-5-oxopyrrolidin-2-yl]-N-[1-(2,2-dimethylpropanoyl)piperidin-4-yl]-2-oxoacetamide] | – | < 1000 | 1000 to 10000 | –
32 | CC(C(=O)C(=O)NCC1CC1)N(C=O)CC1CCN(C(=O)OC(C)(C)C)CC1 (stereo not shown) [FP 39, tert-Butyl 4-[(N-{1-[(cyclopropylmethyl)carbamoyl]-1-oxopropan-2-yl}formamido)methyl]piperidine-1-carboxylate] | – | 1000 to 10000 | > 10000 | –
